Reference: patent publication US10488411B2, “Inflammasome activation in myelodysplastic syndromes” (H. LEE MOFFITT CANCER CENTER AND RESEARCH INSTITUTE, INC., priority 2015, dated 2019)
Each block holds one compound with its values, some of them ahead of it.

Assays:
ROS [1] = assay: ROS detection by flow cytometry in SF3B1-K700E BM cells; type: cell-based, mouse; details: NAC or DPI treatment
Source text: (§1) ROS detection. ROS were detected using CM-H2DCFDA and CellROX® Deep Red Reagent according to manufacturer's protocol (Life Technologies).

β-catenin [2] = assay: β-catenin confocal microscopy in U2AF1 S34F mutant TF-1 cells; type: cell-based; details: treated for 24 hours prior to staining
Experimental: Reagents and cells. U937 cells were grown in RPMI1640 supplemented with 10% FBS. TF-1 U2AF1 mutant and mock WT cells were cultured in RPMI1640 supplemented with 10% FBS and 2 ng/mL recombinant human GM-CSF. Cells were maintained at 37° C. under 5% CO2. Normal, heparinized BM aspirates were purchased from Lonza Walkersville or AllCells, LLC. […] J Clin Invest. 2013 123(11):4595-611). The IRAK4 inhibitor was acquired through material transfer agreement from Nimbus Discovery. NAC and DPI were purchased from Sigma-Aldrich. Active caspase-1 and caspase-3/7 were detected using FAM-FLICA® Caspase-1 and Caspase-3/7 activity kits, (ImmunoChemistry Technologies). NLRP1 antibodies were purchased from Santa Cruz Biotechnology, NLRP3 antibodies from Abcam, and β-catenin antibodies from BD Biosciences. Immunofluorescence confocal microscopy. MDS and normal donor BM-MNC and mouse BM cells were stained with 30× FAM-FLICA® Caspase-1 solution at a ratio of 1:30 for 2 hours at 37° C. Cells were washed and cytospins were generated using a 5 minutes centrifugation at 450 rpm. Slides were fixed at 37° C. for 10 minutes using BD Cytofix Fixation Buffer (BD Biosciences), and subsequently washed using PBS. […] Co-localization of a-caspase-1 with NLRP3 inflammasome complexes was assessed using a Leica TCS SP5 AOBS Laser Scanning Confocal microscope (Leica Microsystems). […]

β-catenin [3] = assay: β-catenin confocal microscopy in SF3B1-K700E BM cells; type: cell-based, mouse; details: 24 hours treatment
Experimental: (§2) Immunofluorescence confocal microscopy. MDS and normal donor BM-MNC and mouse BM cells were stained with 30× FAM-FLICA® Caspase-1 solution at a ratio of 1:30 for 2 hours at 37° C. Cells were washed and cytospins were generated using a 5 minutes centrifugation at 450 rpm. Slides were fixed at 37° C. for 10 minutes using BD Cytofix Fixation Buffer (BD Biosciences), and subsequently washed using PBS. Cells were permeabilized with 0.1% Triton X-100/2% BSA in PBS for 15 minutes at room temperature. After washing with PBS, cells were blocked using 2% BSA in PBS for 30 minutes at room temperature, and washed again. Cells were incubated with the appropriate primary antibody overnight (1:400 for NLRP3, 1:20 for β-catenin) at 4° C. The next day, cells were washed with PBS and incubated with the appropriate secondary antibodies (1:500) for 1 hour at room temperature. After washing, cells were covered with ProLong Gold Antifade Reagent with DAPI prior to the addition of a coverslip (Life Technologies). Co-localization of a-caspase-1 with NLRP3 inflammasome complexes was assessed using a Leica TCS SP5 AOBS Laser Scanning Confocal microscope (Leica Microsystems). Analysis of the inflammasome images was performed with Definiens Developer 2.0 (Definiens AG). The software was used to segment cells based on brightness and size thresholds, followed by a watershed segmentation algorithm. […]

inflammasome = assay: ASC staining flow cytometry for inflammasome formation in SF3B1-K700E BM cells; type: cell-based, mouse; details: 24 hours treatment
Experimental: ASC staining to detect inflammasome formation by flow cytometry. Staining was carried out as described ([…], et al. J Immunol. 2015 194(1):455-62). Briefly, cell pellets were resuspended in 1 mL of prewarmed BD Permeabilization Buffer III, and incubated on ice for 30 minutes. Cells were washed 2× with staining buffer. Following washing, cells were stained with rabbit-anti-ASC primary antibodies at a 1:1500 dilution and incubated for 90 minutes. Cells were washed, stained with secondary antibodies at a dilution of 1:1500, and incubated for 45 minutes. Cells were washed, and sample acquisitions were carried out using a BD LSR II flow cytometer and FACSDiva software.

[4] = test system: pyroptosis-associated genes; assay: qPCR of pyroptosis-associated genes in normal BM-MNC treated with rhS100A9; type: cell-based, human; details: normal BM-MNC (n=2), 1 μg/mL, 24 hours
Experimental: Real-time quantitative PCR. RNA was isolated from BM-MNC using the RNeasy Mini Kit (Qiagen). cDNA was produced using the iScript cDNA Synthesis Kit (Bio-Rad). Sequences for primers can be found in Table 1. GAPDH mRNA was used for transcript normalization. cDNA was amplified using the iQ SYBR Green Supermix and the CFX96 Real-Time PCR Detection System (Bio-Rad). PCR conditions were as follows: 10 minutes at 95° C., followed by 40 cycles of amplification (15 seconds at 95° C. and 1 minute at 60° C.). Relative gene expression was calculated using the −2^ΔΔCt method.

U937 cells [5] = assay: S100A9 flow cytometry experiments in U937 cells (a-caspase-1/annexin-V); type: cell-based
Experimental: S100A9 flow cytometry experiments in U937 cells. Monocytic U937 cells were treated with the indicated concentrations of rhS100A9 for 24 hours, or with 5 μg/mL rhS100A9 for the indicated time points. Subsequently, cells were stained with 30× FAM-FLICA® Caspase-1 solution at a ratio of 1:30 for 2 hours at 37° C. Cells were washed, resuspended in 1× binding buffer, and stained with Annexin-V:PE at a dilution of 1:30 for 15 minutes at room temperature. 1× binding buffer was added to a final volume of 350 μL. Sample acquisitions were carried out using a BD FACSCalibur flow cytometer (BD Biosciences). Data were analyzed using FlowJo 9.7.5 software.

ROS [6] = assay: ROS detection by flow cytometry in U937 cells; type: cell-based; details: U937, 5 μg/mL, 24 hours, compared to untreated cells
Source text: as §1

β-catenin [7] = assay: β-catenin confocal microscopy in normal BM-MNC; type: cell-based, human
Experimental: as §2

β-catenin [8] = assay: β-catenin confocal microscopy in U937 cells; type: cell-based; details: 5 μg/mL, 24 hours, compared to untreated cells
NLRP3 inflammasome [9] = assay: Confocal microscopy of a-caspase-1/NLRP3 in normal BM-MNC treated with rhS100A9; type: cell-based, human; details: 5 μg/mL, 24 hours
Experimental: (§3) Immunofluorescence confocal microscopy. MDS and normal donor BM-MNC and mouse BM cells were stained with 30× FAM-FLICA® Caspase-1 solution at a ratio of 1:30 for 2 hours at 37° C. Cells were washed and cytospins were generated using a 5 minutes centrifugation at 450 rpm. Slides were fixed at 37° C. for 10 minutes using BD Cytofix Fixation Buffer (BD Biosciences), and subsequently washed using PBS. Cells were permeabilized with 0.1% Triton X-100/2% BSA in PBS for 15 minutes at room temperature. After washing with PBS, cells were blocked using 2% BSA in PBS for 30 minutes at room temperature, and washed again. Cells were incubated with the appropriate primary antibody overnight (1:400 for NLRP3, 1:20 for β-catenin) at 4° C. The next day, cells were washed with PBS and incubated with the appropriate secondary antibodies (1:500) for 1 hour at room temperature. After washing, cells were covered with ProLong Gold Antifade Reagent with DAPI prior to the addition of a coverslip (Life Technologies). Co-localization of a-caspase-1 with NLRP3 inflammasome complexes was assessed using a Leica TCS SP5 AOBS Laser Scanning Confocal microscope (Leica Microsystems). Analysis of the inflammasome images was performed with Definiens Developer 2.0 (Definiens AG). The software was used to segment cells based on brightness and size thresholds, followed by a watershed segmentation algorithm. Intensity values and Pearson's correlation coefficient were extracted from the segmented cells. For β-catenin image analysis, confocal images were imported into Definiens Tissue Studio v3.0, 64 Dual in .tif format. Cells were separated from background using the RGB thresholds. Nuclei were identified by setting thresholds in the DAPI channel. Typical cells averaged 60 microns. The red intensity (β-catenin) in the nucleus and cytoplasm was established by setting thresholds to low, medium and high in the red channel on a scale of 0-255 in the red channel.

NLRP3 inflammasome [10] = assay: Confocal microscopy of a-caspase-1/NLRP3 in WT mouse BM cells treated with rhS100A9; type: cell-based; details: 5 μg/mL, 24 hours
Experimental: as §3

NLRP3 inflammasome [11] = molecular target: T1, NLRP3 inflammasome (Homo sapiens, UniProt Q96P20); assay: Confocal microscopy of a-caspase-1/NLRP3 inflammasome formation in U937 cells; type: cell-based; details: 5 μg/mL, 24 hours
T1 construct: endogenous in cells; host or cells: U937 cells
T1 sequence (Q96P20 whole entry): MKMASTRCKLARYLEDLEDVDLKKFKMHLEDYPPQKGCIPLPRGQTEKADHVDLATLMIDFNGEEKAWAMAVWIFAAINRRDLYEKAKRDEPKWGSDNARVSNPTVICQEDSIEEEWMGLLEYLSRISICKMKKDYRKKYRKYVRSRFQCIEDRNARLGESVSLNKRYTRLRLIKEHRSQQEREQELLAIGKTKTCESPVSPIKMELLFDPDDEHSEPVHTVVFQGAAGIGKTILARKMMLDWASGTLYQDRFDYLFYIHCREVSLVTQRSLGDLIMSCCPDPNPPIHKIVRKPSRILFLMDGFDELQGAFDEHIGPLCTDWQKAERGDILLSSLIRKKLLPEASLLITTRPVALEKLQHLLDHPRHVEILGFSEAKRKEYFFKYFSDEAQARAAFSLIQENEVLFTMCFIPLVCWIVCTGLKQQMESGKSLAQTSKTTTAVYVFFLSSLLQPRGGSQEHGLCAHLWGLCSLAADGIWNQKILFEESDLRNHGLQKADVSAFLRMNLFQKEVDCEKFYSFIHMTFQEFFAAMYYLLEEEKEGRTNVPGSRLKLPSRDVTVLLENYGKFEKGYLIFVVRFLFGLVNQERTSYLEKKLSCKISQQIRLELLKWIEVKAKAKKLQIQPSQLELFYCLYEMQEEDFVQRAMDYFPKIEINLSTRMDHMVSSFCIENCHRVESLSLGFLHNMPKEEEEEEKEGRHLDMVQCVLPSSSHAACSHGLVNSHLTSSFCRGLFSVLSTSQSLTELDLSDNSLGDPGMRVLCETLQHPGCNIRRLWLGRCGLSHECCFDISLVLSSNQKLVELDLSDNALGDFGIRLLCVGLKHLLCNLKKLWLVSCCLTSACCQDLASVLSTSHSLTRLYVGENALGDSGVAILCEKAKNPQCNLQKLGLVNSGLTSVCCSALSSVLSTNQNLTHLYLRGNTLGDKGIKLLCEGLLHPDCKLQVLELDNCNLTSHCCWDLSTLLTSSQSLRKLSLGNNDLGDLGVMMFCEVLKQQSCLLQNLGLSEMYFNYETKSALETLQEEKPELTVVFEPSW

U937 cells [12] = assay: Pore formation, ethidium bromide uptake in U937 cells; type: cell-based; details: U937, 5 μg/mL rhS100A9, 12.5 μg/mL ethidium bromide
U937 cells [13] = assay: Comet assay of DNA damage in U937 cells; type: cell-based; details: U937, 5 μg/mL, 24 hours, compared to untreated cells
Experimental: Comet assays. Monocytic U937 cells were treated with 5 μg/mL rhS100A9 for 24 hr. DNA damage was measured by single cell gel electrophoresis using alkaline CometAssay® according to manufacturer's protocol (Trevigen Inc.).

[14] = increasing concentrations, 24 hours

Compound: c1ccc2c(c1)[I+]c1ccccc1-2 [DPI]
ROS MFI in SF3B1-K700E BM cells (ROS [1]): extinguished below the level of WT controls | mean percentage of ROS+ cells in SF3B1-K700E BM cells (ROS [1]): extinguished below the level of WT controls | β-catenin activation in U2AF1-S34F mutant cells (β-catenin [2]): effectively reduced | percentage of cells with elevated levels of nuclear β-catenin in SF3B1-K700E BM cells (β-catenin [3]): significantly reduced | inflammasome formation (ASC) in SF3B1-K700E mutant-expressing BM cells (inflammasome): significantly reduced

levels of NLRP3 inflammasome complexes in U937 (NLRP3 inflammasome [11]): markedly increased
Compound: rhS100A9: recombinant human S100A9, alarmin / DAMP protein, TLR4 and CD33 ligand
expression of pyroptosis-associated genes [4]: significantly up-regulated | activation of caspase-1 in U937 over time (U937 cells [5]; 5 μg/mL): time-dependent increase | a-caspase-1 MFI in U937 (U937 cells [5]; [14]): corresponding increase | fraction of pyroptotic cells in U937 (U937 cells [5]; [14]): concentration-dependent increase | percentage of a-caspase-1+ cells in U937 (U937 cells [5]; [14]): corresponding increase | fold increase in mean percentage of ROS-positive cells (ROS [6]): 2.9 fold | levels of nuclear β-catenin in normal BM-MNC (β-catenin [7]; 5 μg/mL, 24 hours, compared to controls): elevated levels | levels of nuclear (activated) β-catenin in U937 (β-catenin [8]): marked increases | NLRP3 levels, fold induction (NLRP3 inflammasome [9]): 47.1 fold | a-caspase-1 levels, fold induction (NLRP3 inflammasome [9]): 2.5 fold | formation of NLRP3 inflammasomes, fold induction (NLRP3 inflammasome [9]): 2.9 fold | inflammasome complexes (NLRP3 inflammasome [10]): marked induction | MFI of NLRP3 (NLRP3 inflammasome [10]; versus controls): significantly increased | MFI of a-caspase-1 (NLRP3 inflammasome [10]; versus controls): significantly increased | uptake of ethidium bromide (U937 cells [12]): rapid and substantial uptake | fold increase in DNA damage (U937 cells [13]): 4.1 fold

Compound: CC(=O)N[C@@H](CS)C(=O)O [NAC, N-acetylcysteine]
S100A9-triggered nuclear translocation of β-catenin in normal BM-MNC (β-catenin [7]; S100A9 treatment of normal BM-MNC): abolished | ROS MFI in SF3B1-K700E BM cells (ROS [1]): extinguished below the level of WT controls | mean percentage of ROS+ cells in SF3B1-K700E BM cells (ROS [1]): extinguished below the level of WT controls | β-catenin activation in U2AF1-S34F mutant cells (β-catenin [2]): effectively reduced | percentage of cells with elevated levels of nuclear β-catenin in SF3B1-K700E BM cells (β-catenin [3]): significantly reduced | inflammasome formation (ASC) in SF3B1-K700E mutant-expressing BM cells (inflammasome): significantly reduced
